Source: ChEMBL document CHEMBL4482318, “Sepiapterin reductase inhibitors” (2018)
Activity calls are given as the source filed them.

Assays:
Type in all cases: functional, organism-based
[1] = tested on: Rattus norvegicus; assay: Analgesic activity in rat model of chronic constriction injury-induced neuropathic pain assessed as increase in paw withdrawal threshold at 10 mg/kg, po administered via gavage once daily for 3 days by Von frey filament test
[2] = tested on: Rattus norvegicus; assay: Analgesic activity in rat model of spared nerve injury-induced neuropathic pain assessed as increase in paw withdrawal threshold at 10 mg/kg, po administered via gavage once daily for 3 days by Von frey filament test
[3] = tested on: Rattus norvegicus; assay: Analgesic activity in rat model of chronic constriction injury-induced neuropathic pain assessed as increase in paw withdrawal threshold at 9.5 mg/kg, po administered via gavage once daily for 3 days by Von frey filament test
[4] = tested on: Rattus norvegicus; assay: Analgesic activity in rat model of spared nerve injury-induced neuropathic pain assessed as increase in paw withdrawal threshold at 20 mg/kg, po administered via gavage once daily for 3 days by Von frey filament test
[5] = tested on: Rattus norvegicus; assay: Analgesic activity in rat model of spared nerve injury-induced neuropathic pain assessed as increase in paw withdrawal threshold at 15 mg/kg, po administered via gavage once daily for 3 days by Von frey filament test

**Q.** With Cc1c(C(=O)N2CC(c3ccnc(F)c3)C2)cnn1-c1nn2cccc2c(=O)[nH]1 as the molecule, how does the Activity [1] read?
**A.** The Activity was “Active”.

**Q.** How did the Activity [2] turn out when Cc1c(C(=O)N2CCC2c2ccc(F)nc2)cnn1-c1nn2cccc2c(=O)[nH]1 (configuration not stated) was run?
**A.** The Activity was “Active”.

**Q.** How did the Activity [3] turn out when Cc1c(C(=O)N2CCN(C3CC(F)(F)C3)CC2)nnn1-c1nn2cccc2c(=O)[nH]1 was run?
**A.** Its Activity is “Active”.

**Q.** Cc1c(C(=O)N2CCN(C3CC(F)(F)C3)CC2)cnn1-c1nn2cccc2c(=O)[nH]1 was tested. Which Activity [3] did it give?
**A.** The Activity was “Active”.

**Q.** How did the Activity [4] turn out when Cc1c(C(=O)N2CCC(c3nc(C#N)co3)CC2)cnn1-c1nn2cccc2c(=O)[nH]1 was run?
**A.** The Activity was “Active”.

**Q.** Cc1c(C(=O)N2CCN(C3CCC3(F)F)CC2)nnn1-c1nn2cccc2c(=O)[nH]1 (configuration not stated) was tested. Which Activity [2] did it give?
**A.** The Activity was “Active”.

**Q.** Which Activity [5] does the source give for Cc1c(C(=O)N2CC3CC(C2)N3C2CC2)cnn1-c1nn2cccc2c(=O)[nH]1 here?
**A.** The Activity was “Active”.
